We go through three molecules from patent US10525101B2, “Methods of treating inflammatory or autoimmune disorders with compounds that bind macrophage migration inhibitory factor” (Oregon Health & Science University, priority 2015, dated 2020).

Ends that are not written are not given here.

One assay concerns the target T1, human MIF (hMIF) (Homo sapiens, UniProt P14174).
T1 sequence (P14174 2-115 limits assumed): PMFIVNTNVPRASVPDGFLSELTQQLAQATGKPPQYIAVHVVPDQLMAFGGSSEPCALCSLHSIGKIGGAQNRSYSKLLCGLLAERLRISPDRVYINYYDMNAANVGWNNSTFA
Put plainly: Competition ELISA: peptides blocking rmCD74 binding to plate-coated hMIF. The following applies: FIG. 2A/2B. How it is done: The ability of α-helix 1 and α-helix 2 peptides to compete with MIF for binding to CD74 was tested. Briefly, 50 μl of hMIF at a concentration of 0.5 μg/ml in PBS was coated onto ELISA plates for 2 hours at RT, washed 4 times with […] of PBS/0.0125% T20, blocked with 300 μl of 5% BSA in PBS, pH 7.4 for 2 hours at room temperature, and then a mixture of rmCD74 (constant concentration of 0.5 μg/ml) and competitor (SEQ ID NO: 2, SEQ ID NO: 4) at an initial concentration of 66 μM (33 μM each, mixed or 66 μM each, separately) in 5% BSA/PBS was added to the wells for 3 hours at room temperature to allow binding. Wells were thoroughly washed with PBS/T20 and the mAb PIN.1/anti-mIgG1-HRP (at 0.5 μg/ml in 5% BSA/PBS each) was used to detect the remaining rmCD74 bound to MIF. This mAb recognizes an epitope located at the N-terminus of the protein. Color was developed after adding 50 μl of TMB for 5 minutes and the reaction was stopped with 50 μl of 0.1N HCl. Data was first normalized and then analyzed using GraphPad Prism software. IC50 were calculated by fitting the curve to a competition model involving a two-binding site equation.

The next assay relates to RTL1000. As to the kind of experiment: Competition ELISA: peptides competing with rmCD74 for binding to plate-coated RTL1000. The following applies: for competition with CD74 for binding to RTL1000 (in words): FIG. 3A; for LogIC50 vs RTL 1000 / IC50 vs RTL 1000: Table 1, from FIG. 3A, one-binding site fit; for IC50 vs RTL 1000: rmCD74 50 nM, in µM. How it is done: (§1) Competition of peptides with rmCD74 for binding to RTL1000 or DRα1mMOG35-55 was also tested. Briefly, 50 μl of 1 μg/ml either RTL1000 or DRα1mMOG-35-55 were coated onto ELISA plates at 25° C. for 2 hours. Each well was washed 4 times with 300 μl of PBS/0.0125% Tween 20 (PBS/T20) to remove excess of protein and then blocked with 5% BSA/PBS at pH 7.4 (BSA/PBS) for 2 hours at the same temperature. Serial 1:2 dilutions of α-helix 1 or α-helix 2 (starting with a concentration of 66 μM, 50 μg/ml each) were prepared in rmCD74 (in BSA/PBS, 50 nM, 0.5 ug/ml) and added to the plate. Competition for the binding site was allowed for 3 hours at 25° C. and then unbound complexes were washed 4 times with PBS/T20. Remaining rmCD74 bound to RTL1000 or DRα1mMOG-35-55 was detected by the PIN.1/anti-mouse IgG1-HRP at 1 ul/ml of both in BSA/PBS for 1.5 hours at 25° C. and visualized by adding TMB substrate (50 μl, according to the manufacturer's instructions). Color development was stopped with 0.1N HCl and the plate was read at 450 nm in an ELISA plate reader. Data were normalized and fitted to a one-binding site model and competitor concentration was plotted against Absorbance at 450 nm to determine the IC50 of each peptide competitor. All data were analyzed using Prism software (GraphPad).
(In an ELISA, binding on a coated surface is turned into a signal by an enzyme label.)

The next assay has as its system DRα1mMOG-35-55. Put plainly: Competition ELISA: peptides competing with rmCD74 for binding to plate-coated DRα1mMOG-35-55. The settings on record: for competition with CD74 for binding to DRα1-mMOG-35-55 (in words): FIG. 3A, FIGS. 4A/4B; for IC50: FIGS. 4A and 4B, peptides combined or alone, read-out: IC50 for blocking rmCD74 binding to DRα1mMOG-35-55; for LogIC50 vs DRα1mMOG-35-55 / IC50 vs DRα1mMOG-35-55: Table 1, from FIG. 3A, one-binding site fit; for IC50 vs DRα1mMOG-35-55: rmCD74 50 nM. As to the method:
as §1

Assay [1] deals with experimental autoimmune encephalomyelitis (EAE). The settings on record: mice with EAE, treated after onset of clinical signs; cited from earlier work.

One may read the IC50 as the concentration that gives 50% inhibition. Turning to KGSFPENLRHLKNTMET [α-helix 2], at human MIF (hMIF), the “blocking of rmCD74 binding to human MIF (in words)” value (shortened to “blocking of rmCD74 binding”) is listed as “to a lesser extent”. Further, in the assay on RTL1000, the “competition with CD74 for binding to RTL1000 (in words)” value is on record as “competes to a lesser extent”, the “LogIC50 vs RTL 1000” value was 1.535 and the “IC50 vs RTL 1000” value came to 34.27. In the assay on DRα1mMOG-35-55, the “competition with CD74 for binding to DRα1-mMOG-35-55 (in words)” value (“competition … to DRα1-mMOG-35-55 (in words)” below) is “did not have a significant effect”, the IC50 came out at 24.5 µM, the “LogIC50 vs DRα1mMOG-35-55” value was found to be 2.222 and the “IC50 vs DRα1mMOG-35-55” value came out at 166.6. In addition, the “competition … to DRα1-mMOG-35-55 (in words)” value with DRα1mMOG-35-55 (listed as SEQ ID NO: 4) is reported as “competes to a lesser extent”.

Take TEDHVMHLLQNAD [α-helix 1]: the “blocking of rmCD74 binding” value at human MIF (hMIF) was “blocks CD74 binding to hMIF”. Besides, at human MIF (hMIF) (listed as SEQ ID NO: 2), the “blocking of rmCD74 binding” value was “able to block”. For the same molecule, in the assay with RTL1000, the “competition with CD74 for binding to RTL1000 (in words)” value is recorded as “able to outcompete”, the “LogIC50 vs RTL 1000” value is reported as 0.8309 and the “IC50 vs RTL 1000” value came to 6.775. Further, in the assay with DRα1mMOG-35-55, the “competition … to DRα1-mMOG-35-55 (in words)” value is “able to outcompete”, the IC50 was 35 µM, the “LogIC50 vs DRα1mMOG-35-55” value is on record as 1.002 and the “IC50 vs DRα1mMOG-35-55” value is listed as 10.05.

B1: DRα1-MOG-35-55: second generation derivative of RTL1000, partial MHC molecule DRα1 construct that binds CD74 (protein)
chain: MEVGWYRSPFSRVVHLYRNGKGGGGSLVPRGSGGGGIKEEHVIIQAEFYLNPDQSGEFMFDFDGDEIFHVDMAKKETVWRLEEFGRFASFEAQGALANIAVDKANLEIMTKRSNYTPITN
As to B1, the “effect on EAE (in words)” value in assay [1] is reported as “reduced disease severity”.
